Here are results for 7 compounds from patent publication US5369030A, “Method of inducing cellular differentiations and altering cell phenotype using ceramide analogs” (Duke University, priority 1992, dated 1994).

The subject of data set [1] is HL-60 cells. Description: HL-60 differentiation, H2O2 generation. It counts as cell-based, human. The procedure: (§1) Human myelocytic leukemia HL-60 cells (20-45 passages (American Type Culture Collection, Rockville, Md., accession no. CCL 240) were obtained and grown in RPMI 1640 medium (Sigma Chemical Co., St. Louis, Mo.) containing 10% fetal calf serum at 37° C. in 5% CO2 incubator at a cell density of 2×10^5 cells/mi. The cells were washed once with phosphate buffered saline (PBS) and resuspended in serum-free media containing insulin (5 mg/liter) and transferrin (5 mg/liter) for 2-3 hours before treatment with various compounds.
Therefore, 3 μM C14-L-t-APPD was applied to HL-60 cells either alone or in combination with subthreshold levels (0.3 nM) of 1,25-dihydroxyvitamin D3 (D3), and cell differentiation was determined at 60 and 108 hours following treatment by quantitating […] generation, a marker of HL-60 differentiation. Subthreshold levels of D3 refers to levels of D3 that are too low to induce differentiation of HL60 cells.
H2 O2 production was quantitated as described in Goodwin, B. J. and Weinberg, J. B., J. Clin. Invest. 70:699-706 (1982) and Pick, E. and Mizel, D. J. Immunol. Methods 46: 211-226 (1981). For comparison, HL60 cell differentiation obtained with 2 μM C2-ceramide alone and 0.3 nM vitamin D3 are were also determined.

Data set [2] has as its system sphingomyelin in HL-60 cells. The following applies: previous study, Okazaki, T., et al.; cited from earlier work.
The test system of data set [3] is HL-60 cells. Description: HL-60 differentiation, reduction of Nitro blue tetrazolium (NBT). It counts as cell-based, human. The following applies: 3 μM, three days; for cells acquiring the ability to reduce NBT: control cells 10%. The procedure:
as §1
HL-60 cells were treated with 3 μM of C14-D-e-APP-1 or 3 μM C14-L-e-APP-1 for three days in accordance with the procedure described in Example 3D. Cell differentiation was determined by the ability of differentiated cells to reduce Nitro blue tetrazolium (NBT) as described in Okazaki, T. et. al., J. Biol. Chem. 265:15823-15831 (1990).

Data set [4] deals with HL-60 cells. Description: HL-60 cell growth/proliferation, cells counted with a hemocytometer. It counts as cell-based, human. The following applies: for pIC50 / activity at 1 µM / activity at 2 µM / activity at 3 µM / activity at 4 µM / activity at 5 µM: Homo sapiens; for pIC50: read-out: IC50%; for cell density: starting density 2×10^5 cells/ml. The procedure:
as §1
HL-60 cells were treated with 3 μM of Cn-L-t-APPD with acyl chain lengths of C6, C8, C10, C12, C14, C16, and C18 (m=4, 6, 8, 10, 12, 14 and 16) in fresh ehtanol solution or with an ethanol vehicle and cell growth was determined following three days of treatment. Cell growth was quantified using a hemocytometer. Cell viability was judged by the ability to exclude trypan blue dye. Viability was always more than 80% unless otherwise described.
HL-60 cells (starting cell density of 2×10^5 cells/ml) were treated with different concentrations of C14-L-t-APPD and cells were counted following 24 and 72 hours of treatment. The results are representative of three experiments. A 1μM dose of C14-L-t-APPD had little or no effect on cell growth at 24 or 72 hours (approximately 105% and 130% of control, respectively). A 2μM dose inhibited cell growth to approximately 65% of the control at both 24 and 72 hours. […] The IC50% was approximately 2 μM (10 fmol/cell). IC50% is the concentration of test compound that causes 50% inhibition of cell growth in comparison with controls. Thus, similar to results with C2-ceramide, C14-APPD inhibited cell proliferation at different durations of treatment.
HL-60 cells (starting cell density of 2×10^5 cells/ml) were treated with 3 μM Cn-L-t-APPD derivatives with N-acyl chain lengths of C6, C8, C10, C12, C14, C16, and C18 (m=4,6,8,10, 12, 14, and 16) and cells were counted at 0, 12, 36, 60, 84 and 108 hours post treatment. The results are representative of 3 experiments.
N-acyl derivatives of 2-amino-1-(4'-nitrophenyl)-1,3-propanediol (Cn-D-t-ANPPD) were tested to determine the effects of chain length on HL-60 cell growth as described in Examples 3 A. HL-60 cells (at a starting cell density of 2×10^5 cells/ml) were treated with 3 μM of the diff analogs (C6, C8, C10, C12, C14, C16 and C18) of Cn-D-t-ANPPD, and cell growth was determined at three days. The control received no Cn-D-t-ANPPD. Treatment of HL-60 cells with C2-ceramide is included for comparison.
HL-60 cells were treated with the indicated concentrations and cell growth was determined following three days of treatment as described in Example 3B.
The suitability of phenylaminopropanediol derivatives as analogs of ceramide allowed further investigation of the structural requirements for ceramide-mediated biology. For these experiments, C14 (N-myristoyl) derivatives of different phenylaminoalcohols were synthesized and examined for their biologic activity. HL-60 cells (starting cell density of 2×10^5 cells/ml) were treated with 3 μM of C14 derivatives C14-L-t-APPD, C14-D-t-ANPPD, C14-D-e-APP-1, C14-L-e-APP-1, C14-APP-3 and C14-D-APP3. The structures of these compounds are provided in Table I. Cell growth was determined at 3 days as described in Example 3A. The results shown are averages of two determinations, and are representative of five different experiments.
and C14-L-e-APP-1 HL-60 cells were treated as described in Example 3B. growth was determined after 3 days of treatment.

Data set [5] has as its system HL-60 cells. Description: Uptake of [3H]-labeled compounds. The following applies: [3H]-labeled compound. It counts as cell-based, human. The procedure:
(1R, 2S) 2-(N-[^3 H]-myristoylamino)-1-phenyl-1propanol ([^3 H] C14-L-e-APP-1) and (1S, 2R) 2-(N-[^3 H]-myristoylamino)-1-phenyl-1-propanol ([^3 H]C14-D-e-APP-1) were prepared following the general procedures of Example 1 for synthesis of N-acyl-amino alcohols using [^3 H]-myristoyl chloride. Specific activity was ~3×10^3 cpms/nmol. [^3 H] myristoyl chloride was made from 9,10-[^3 H]-myristic acid and oxalyl chloride in dry benzene.
In studies using [^3 H]-labeled C14-D-e-APP-1 and C14-L-e-APP-1, uptake of the two compounds was nearly identical with 21% of [3 H]-C14-D-e-APP-1 taken up and 20% of [3 H]-C14-L-e-APP-1 taken up.

Data set [6] relates to HL-60 cells. The following applies: Okazaki et al.; cited from earlier work.
The subject of data set [7] is HL-60 cells. The following applies: Okazaki et al.; cited from earlier work. The source holds these as a separate data set.
Setting [8] is: Example 5, 3 μM C14 derivatives, 3 days.
Setting [9] is: HL-60, 72 h, Example 5, Table IV, 3 days, read-out: CELL GROWTH (% OF CONTROL).
Where [10] appears, read: HL-60, 72 h, Example 5, Table IV, 3 μM, 3 days, read-out: CELL GROWTH (% OF CONTROL).
The mark [11] stands for this setting: HL-60, 24 h, Example 3B, 24 hours, read-out: cell growth, % of control.
[12] abbreviates: HL-60, 72 h, Example 3B, 72 hours, read-out: cell growth, % of control.

Molecules are shown by their SMILES. pIC50: −log10 of the molar value. Where two headings read alike, the source gives them in different places. Bounds are passed on as bounds.

On to `C=C1/C(=C\C=C2/CCC[C@]3(C)[C@@H]([C@H](C)CCCC(C)(C)O)CC[C@@H]23)C[C@@H](O)C[C@@H]1O` [1,25-dihydroxyvitamin D3, reference compound], for which the H2O2 generation entry in the data set on HL-60 cells [1] (0.3 nM 1,25-dihydroxyvitamin D3, 60 hours) is listed as “approximately 0.4 nmol H2O2 /10^5 cells”; in the data set on HL-60 cells [1] (0.3 nM 1,25-dihydroxyvitamin D3, 108 hours), around 0.2 nmol/10^5 cells. Besides, the “hydrolysis of sphingomyelin (in words)” value in data set [2] is reported as “caused hydrolysis of sphingomyelin in HL-60 cells”.

With `CCCCCCCCCCCCCC(=O)N[C@H](C)[C@@H](O)c1ccccc1` [C14-D-e-APP-1], the “cells acquiring the ability to reduce NBT” value in the data set with HL-60 cells [3] turned out to be 42%. Also, in the data set with HL-60 cells [4] (Example 5, Table IV experiment, HL-60 growth, 3 days), the “IC50% per cell number” value is 125 fmol/10^5 cells. The “cell growth, % of control” value with HL-60 cells [4] (setting [8]) is “approximately 15%”. Besides, the “activity relative to reference (in words)” value in the data set with HL-60 cells [4] (Example 5, 3 μM, 3 days, inhibition of cell growth) is “as effective as C2-ceramide”. In addition, in the data set on HL-60 cells [4] (72 h, Example 5, Table IV experiment, HL-60 growth, 3 days), the pIC50 was 5.60. For the same compound, in the data set with HL-60 cells [4] (setting [9]), the activity at 1 µM came to 100%, the activity at 2 µM was determined as 71%, the activity at 4 µM came out at 20% and the activity at 5 µM came to 10%. Besides, the activity at 3 µM in the data set with HL-60 cells [4] (setting [10]) worked out at 45%.

Regarding `CCCCCCCCCCCCCC(=O)N[C@@H](C)[C@H](O)c1ccccc1` [C14-L-e-APP-1], the “level of differentiation (in words)” value in the data set on HL-60 cells [3] (NBT reduction) was “little activity over control”. In addition, in the data set on HL-60 cells [3], the “cells acquiring the ability to reduce NBT” value turned out to be 12%. Moreover, the “inhibition of HL-60 cell growth (in words)” value in the data set with HL-60 cells [4] (Example 5, Table IV experiment, 1-5 μM, 3 days) was “no activity”. Also, the “cell growth, % of control” value with HL-60 cells [4] (setting [8]) is 87%. For the same compound, in the data set with HL-60 cells [4] (setting [9]), the activity at 1 µM amounted to 101%, the activity at 2 µM stood at 100%, the activity at 4 µM stood at 100% and the activity at 5 µM was determined as 99%. For the same compound, the activity at 3 µM in the data set with HL-60 cells [4] (setting [10]) was 99%.

For `CCCCCCCCCCCCCC(=O)N[C@@H](CO)[C@@H](O)c1ccccc1` [C14-L-t-APPD, N-MYRISTOYL-L-THREO-2-AMINO-1-PHENYL-1,3-PROPANDIOL], the “cell growth, % of control” value with HL-60 cells [4] (Example 3A, 3 μM Cn-L-t-APPD, three days) is around 15%. The IC50% per cell result in the data set on HL-60 cells [4] (Example 3B, 50% inhibition of cell growth, 2×10^5 cells/ml) is recorded as “approximately 10 fmol/cell”. For the same compound, the “potency relative to C2-ceramide (in words)” value in the data set with HL-60 cells [4] (Example 3C, 3 μM) is given as “equally potent to C2-ceramide”. Besides, the cell density with HL-60 cells [4] (Example 3C, 3 μM, 84 hours) amounted to 100000 mL⁻¹; with HL-60 cells [4] (Example 3C, 3 μM, 108 hours) it was 200000 mL⁻¹. Besides, in the data set on HL-60 cells [4] (Example 3C, 3 μM, time course to 108 hours), the “inhibition of cell growth (in words)” value is reported as “able to inhibit cell growth by significant amounts”. For the same compound, the results for the activity at 1 µM in the data set on HL-60 cells [4] (setting [11]) and with HL-60 cells [4] (setting [12]) were around 105% and around 130%, respectively. In addition, the activity at 2 µM in the data set with HL-60 cells [4] (setting [11]) and in the data set with HL-60 cells [4] (setting [12]) was around 65% in each case. The activity at 3 µM with HL-60 cells [4] (HL-60, 24 h, Example 3B, 3 μM, 24 hours, read-out: cell growth, % of control) is below 10%; in the data set with HL-60 cells [4] (HL-60, 72 h, Example 3B, 3 μM, 72 hours, read-out: cell growth, % of control) it was below 10%. For the same compound, the activity at 4 µM with HL-60 cells [4] (setting [11]) and in the data set with HL-60 cells [4] (setting [12]) was below 10% in each case. Moreover, the negative logarithm of the IC50 (pIC50) in the data set with HL-60 cells [4] (HL-60, Example 3B, 50% inhibition of cell growth, 2×10^5 cells/ml, 24 and 72 hours) was around 5.70. Further, in the data set on HL-60 cells [1] (3 μM C14-L-t-APPD + 0.3 nM 1,25-dihydroxyvitamin D3), the “effect of combination on cell differentiation (in words)” value is listed as “synergistic effect on cell differentiation”. Also, the “H2O2 generation, combination” value is on record as “approximately 1.1 nmol H2O2 /10^5 cells” with HL-60 cells [1] (3 μM C14-L-t-APPD + 0.3 nM 1,25-dihydroxyvitamin D3, 60 hours) and around 1.0 nmol H2O2 /10^5 cells in the data set on HL-60 cells [1] (3 μM C14-L-t-APPD + 0.3 nM 1,25-dihydroxyvitamin D3, 108 hours). The H2O2 generation entry with HL-60 cells [1] (3 μM C14-L-t-APPD alone, 60 hours) was “approximately 0.3 nmol/10^5 cells”; in the data set on HL-60 cells [1] (3 μM C14-L-t-APPD alone, 108 hours), around 0.5 nmol/10^5 cells. In addition, the “effect on differentiation relative to C2-ceramide (in words)” value in the data set on HL-60 cells [1] (3 μM C14-L-t-APPD vs 2 μM C2-ceramide) was “nearly identical to those of 2 μM C2-ceramide”.

Consider `[3H]C(CCCC)C([3H])CCCCCCCC(=O)N[C@H](C)[C@@H](O)c1ccccc1` (stereo partly drawn) [[3 H]-C14-D-e-APP-1, (1S, 2R) 2-(N-[^3 H]-myristoylamino)-1-phenyl-1-propanol], for which the uptake in the data set with HL-60 cells [5] was determined as 21%.

Turning to `[3H]C(CCCC)C([3H])CCCCCCCC(=O)N[C@@H](C)[C@H](O)c1ccccc1` (stereo partly drawn) [[3 H]-C14-L-e-APP-1, (1R, 2S) 2-(N-[^3 H]-myristoylamino)-1-phenyl-1propanol], the uptake in the data set with HL-60 cells [5] was determined as 20%.

For the compound `CCCCCCCCCCCCC/C=C/[C@@H](O)[C@@H](N)CO` [sphingosine, Sphingosine], in the data set on HL-60 cells [6], the “HL-60 cell differentiation (in words)” value is “do not mimic the effects of ceramide on cell differentiation”. Also, in the data set with HL-60 cells [7], the “HL-60 cell growth (in words)” value was “inhibit HL-60 cell growth”.
